Read-outs that look alike come from different tables or passages of the source.
Experiments:
Assay type in all cases: biochemical
kinases [1] = target: kinases (Homo sapiens, UniProt Q15139); settings: PRKD1 (PKC mu) Z-Lyte SP; Test Conc(μM):ATP Conc(μM) 1:10
kinases [2] = target: kinases (Homo sapiens, UniProt Q96RG2); settings: PASK FRET-Z-Lyte SP; Test Conc(μM):ATP Conc(μM) 1:50
kinases [3] = target: kinases (Homo sapiens, UniProt Q8NI60); settings: ADCK3 FRET-Lantha SP; Test Conc(μM) 1
kinases [4] = target: kinases (Homo sapiens, UniProt O43781); settings: DYRK3 FRET-Z-Lyte SP; ATP Conc(μM):Test Conc(μM) 1:5
kinases [5] = target: kinases (Homo sapiens, UniProt O95835); settings: LATS1 FRET-Lantha SP; Test Conc(μM) 1
kinases [6] = target: kinases (Homo sapiens, UniProt Q9UPE1); settings: STK23 (MSSK1) FRET-Z-Lyte SP; Test Conc(μM):ATP Conc(μM) 1:75
kinases [7] = target: kinases (Homo sapiens, UniProt Q9HBY8); settings: SGK2 FRET-Z-Lyte SP; Test Conc(μM):ATP Conc(μM) 1:50
kinases [8] = target: kinases (Homo sapiens, UniProt Q9NYL2); settings: ZAK FRET-Lantha SP; Test Conc(μM) 1
kinases [9] = target: kinases (Homo sapiens, UniProt Q9UKE5); settings: TNIK FRET-Lantha SP; Test Conc(μM) 1
kinases [10] = target: kinases (Homo sapiens, UniProt Q9H093); settings: NUAK2 FRET-Lantha SP; Test Conc(μM) 1
kinases [11] = target: kinases (Homo sapiens, UniProt P49674); settings: CSNK1E (CK1 epsilon) Z-Lyte SP; Test Conc(μM):ATP Conc(μM) 1:5
kinases [12] = target: kinases (Homo sapiens, UniProt Q9Y243); settings: AKT3 (PKB gamma) Z-Lyte SP; Test Conc(μM):ATP Conc(μM) 1:100
kinases [13] = target: kinases (Homo sapiens, UniProt P54646)
kinases [14] = target: kinases (Homo sapiens, UniProt P43403); settings: ZAP70 *Mn* FRET-Z-Lyte SP; Test Conc(μM):ATP Conc(μM) 1:5
kinases [15] = target: kinases (Homo sapiens, UniProt P27361); settings: MAPK3 (ERK1) FRET-Z-Lyte SP; Test Conc(μM):ATP Conc(μM) 1:50
kinases [16] = target: kinases (Homo sapiens, UniProt P11309); settings: PIM1 FRET-Z-Lyte SP; Test Conc(μM):ATP Conc(μM) 1:400
kinases [17] = target: kinases (Homo sapiens, UniProt P49841); settings: GSK3B FRET-Z-Lyte SP; Test Conc(μM):ATP Conc(μM) 1:10
kinases [18] = target: kinases (Homo sapiens, UniProt P11362); settings: FGFR1 *Mn* FRET-Z-Lyte SP; Test Conc(μM):ATP Conc(μM) 1:25
kinases [19] = target: kinases (Homo sapiens, UniProt Q14164); settings: IKBKE (IKK epsilon) Z-Lyte SP; Test Conc(μM):ATP Conc(μM) 1:10
kinases [20] = target: kinases (Homo sapiens, UniProt Q13188); settings: STK3 (MST2) FRET-Z-Lyte SP; Test Conc(μM):ATP Conc(μM) 1:50
kinases [21] = target: kinases (Homo sapiens, UniProt Q2M2I8); settings: AAK1 FRET-Lantha SP; Test Conc(μM) 1
kinases [22] = target: kinases (Homo sapiens, UniProt Q5VT25); settings: CDC42 BPA (MRCKA) Z-Lyte SP; Test Conc(μM):ATP Conc(μM) 1:5
kinases [23] = target: kinases (Homo sapiens, UniProt P17252); settings: PRKCA (PKC alpha) Z-Lyte SP; Test Conc(μM):ATP Conc(μM) 1:25
kinases [24] = target: kinases (Homo sapiens, UniProt P48736); settings: PIK3CG (p110 gamma) Adapta SP; Test Conc(μM):ATP Conc(μM) 1:25
kinases [25] = target: kinases (Homo sapiens, UniProt P22612); settings: PRKACG FRET-Lantha SP; Test Conc(μM) 1
kinases [26] = target: kinases (Homo sapiens, UniProt O14757); settings: CHEK1 (CHK1) FRET-Z-Lyte SP; Test Conc(μM):ATP Conc(μM) 1:50
kinases [27] = target: kinases (Homo sapiens, UniProt Q86YV6); settings: MYLK4 FRET-Lantha SP; Test Conc(μM) 1
kinases [28] = target: kinases (Homo sapiens, UniProt P21709); settings: EPHA1 FRET-Z-Lyte SP; Test Conc(μM):ATP Conc(μM) 1:25
[29] = AMPK (A2/B2/G1) FRET-Lantha SP, Test Conc(μM) 1
[30] = AMPK (A2/B2/G2) FRET-Lantha SP, Test Conc(μM) 1
[31] = AMPK A2/B1/G1 FRET-Z-Lyte SP, Test Conc(μM):ATP Conc(μM) 1:150
[32] = AMPK A2/B1/G2 FRET-Z-Lyte SP, Test Conc(μM):ATP Conc(μM) 1:10
[33] = AMPK A2/B1/G3 FRET-Z-Lyte SP, Test Conc(μM):ATP Conc(μM) 1:25
[34] = AMPK A2/B2/G3 FRET-Z-Lyte SP, Test Conc(μM):ATP Conc(μM) 1:50

Sequence of kinases (Homo sapiens, UniProt P54646) (P54646 whole entry): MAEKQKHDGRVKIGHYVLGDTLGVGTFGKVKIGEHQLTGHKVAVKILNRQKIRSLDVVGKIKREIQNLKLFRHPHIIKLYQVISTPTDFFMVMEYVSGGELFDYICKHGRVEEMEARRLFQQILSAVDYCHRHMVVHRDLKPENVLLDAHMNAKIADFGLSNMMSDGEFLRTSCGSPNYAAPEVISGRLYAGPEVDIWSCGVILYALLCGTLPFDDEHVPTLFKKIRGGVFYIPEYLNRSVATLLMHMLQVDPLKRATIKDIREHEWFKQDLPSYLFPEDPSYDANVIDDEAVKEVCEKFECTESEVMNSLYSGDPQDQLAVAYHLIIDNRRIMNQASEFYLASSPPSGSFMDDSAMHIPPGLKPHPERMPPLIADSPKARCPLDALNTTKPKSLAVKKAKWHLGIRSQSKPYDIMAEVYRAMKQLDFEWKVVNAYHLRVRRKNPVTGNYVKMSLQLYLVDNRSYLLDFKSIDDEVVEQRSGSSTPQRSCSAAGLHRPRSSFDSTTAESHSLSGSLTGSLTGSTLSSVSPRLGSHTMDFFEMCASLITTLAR
Sequence of kinases (Homo sapiens, UniProt Q9Y243) (Q9Y243 whole entry): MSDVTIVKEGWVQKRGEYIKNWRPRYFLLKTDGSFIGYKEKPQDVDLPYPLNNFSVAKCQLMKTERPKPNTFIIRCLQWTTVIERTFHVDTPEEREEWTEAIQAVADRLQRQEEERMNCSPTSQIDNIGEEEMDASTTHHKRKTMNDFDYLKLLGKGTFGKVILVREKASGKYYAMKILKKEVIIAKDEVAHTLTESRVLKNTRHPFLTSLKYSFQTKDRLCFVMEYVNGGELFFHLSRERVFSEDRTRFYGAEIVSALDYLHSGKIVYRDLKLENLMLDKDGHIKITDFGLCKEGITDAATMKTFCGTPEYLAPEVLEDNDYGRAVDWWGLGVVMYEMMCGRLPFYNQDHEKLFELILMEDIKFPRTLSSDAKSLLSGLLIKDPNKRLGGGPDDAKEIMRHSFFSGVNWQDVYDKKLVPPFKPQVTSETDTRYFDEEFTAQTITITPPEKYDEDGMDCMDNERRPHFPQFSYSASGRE
Sequence of kinases (Homo sapiens, UniProt P49841) (P49841 whole entry): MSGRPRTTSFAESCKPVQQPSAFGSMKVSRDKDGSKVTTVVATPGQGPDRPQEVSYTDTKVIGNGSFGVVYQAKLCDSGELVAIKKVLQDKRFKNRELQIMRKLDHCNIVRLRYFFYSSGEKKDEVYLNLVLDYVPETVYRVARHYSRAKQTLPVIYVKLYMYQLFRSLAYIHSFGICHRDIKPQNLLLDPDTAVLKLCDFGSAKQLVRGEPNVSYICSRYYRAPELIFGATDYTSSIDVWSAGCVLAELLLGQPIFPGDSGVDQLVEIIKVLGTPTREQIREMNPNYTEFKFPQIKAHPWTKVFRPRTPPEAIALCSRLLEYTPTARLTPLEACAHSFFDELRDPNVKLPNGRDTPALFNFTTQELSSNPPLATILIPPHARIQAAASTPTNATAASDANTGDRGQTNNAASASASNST
Sequence of kinases (Homo sapiens, UniProt O95835) (O95835 whole entry): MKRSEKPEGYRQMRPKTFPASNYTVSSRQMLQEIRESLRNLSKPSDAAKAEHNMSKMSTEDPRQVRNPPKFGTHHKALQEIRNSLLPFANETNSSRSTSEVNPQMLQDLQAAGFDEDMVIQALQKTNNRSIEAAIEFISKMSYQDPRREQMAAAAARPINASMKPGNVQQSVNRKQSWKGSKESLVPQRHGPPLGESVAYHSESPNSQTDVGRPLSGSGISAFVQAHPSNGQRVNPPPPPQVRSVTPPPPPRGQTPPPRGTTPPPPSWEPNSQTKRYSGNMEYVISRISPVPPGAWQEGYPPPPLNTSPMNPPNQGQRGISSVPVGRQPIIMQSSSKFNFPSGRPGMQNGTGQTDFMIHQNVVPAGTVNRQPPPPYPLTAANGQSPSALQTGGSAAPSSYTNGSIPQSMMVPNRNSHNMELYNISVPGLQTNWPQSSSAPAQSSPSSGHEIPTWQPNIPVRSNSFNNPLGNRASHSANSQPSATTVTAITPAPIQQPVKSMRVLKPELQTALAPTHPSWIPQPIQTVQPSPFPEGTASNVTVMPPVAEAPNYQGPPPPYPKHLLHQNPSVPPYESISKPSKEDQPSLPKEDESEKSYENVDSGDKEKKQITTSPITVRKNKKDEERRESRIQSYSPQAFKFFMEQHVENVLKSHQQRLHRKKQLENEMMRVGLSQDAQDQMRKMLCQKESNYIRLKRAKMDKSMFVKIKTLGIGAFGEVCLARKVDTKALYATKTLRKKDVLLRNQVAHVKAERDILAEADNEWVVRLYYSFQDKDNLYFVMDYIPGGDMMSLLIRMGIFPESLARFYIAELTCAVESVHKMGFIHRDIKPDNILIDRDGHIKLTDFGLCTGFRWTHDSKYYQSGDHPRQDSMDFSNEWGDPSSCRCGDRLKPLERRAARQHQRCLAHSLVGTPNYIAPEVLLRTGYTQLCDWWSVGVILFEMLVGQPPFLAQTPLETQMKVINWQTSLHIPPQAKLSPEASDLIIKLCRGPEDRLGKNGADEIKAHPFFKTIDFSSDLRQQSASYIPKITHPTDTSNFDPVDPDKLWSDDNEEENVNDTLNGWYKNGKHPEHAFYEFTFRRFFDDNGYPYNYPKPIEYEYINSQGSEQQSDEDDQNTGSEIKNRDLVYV
Sequence of kinases (Homo sapiens, UniProt P21709) (P21709 26-976): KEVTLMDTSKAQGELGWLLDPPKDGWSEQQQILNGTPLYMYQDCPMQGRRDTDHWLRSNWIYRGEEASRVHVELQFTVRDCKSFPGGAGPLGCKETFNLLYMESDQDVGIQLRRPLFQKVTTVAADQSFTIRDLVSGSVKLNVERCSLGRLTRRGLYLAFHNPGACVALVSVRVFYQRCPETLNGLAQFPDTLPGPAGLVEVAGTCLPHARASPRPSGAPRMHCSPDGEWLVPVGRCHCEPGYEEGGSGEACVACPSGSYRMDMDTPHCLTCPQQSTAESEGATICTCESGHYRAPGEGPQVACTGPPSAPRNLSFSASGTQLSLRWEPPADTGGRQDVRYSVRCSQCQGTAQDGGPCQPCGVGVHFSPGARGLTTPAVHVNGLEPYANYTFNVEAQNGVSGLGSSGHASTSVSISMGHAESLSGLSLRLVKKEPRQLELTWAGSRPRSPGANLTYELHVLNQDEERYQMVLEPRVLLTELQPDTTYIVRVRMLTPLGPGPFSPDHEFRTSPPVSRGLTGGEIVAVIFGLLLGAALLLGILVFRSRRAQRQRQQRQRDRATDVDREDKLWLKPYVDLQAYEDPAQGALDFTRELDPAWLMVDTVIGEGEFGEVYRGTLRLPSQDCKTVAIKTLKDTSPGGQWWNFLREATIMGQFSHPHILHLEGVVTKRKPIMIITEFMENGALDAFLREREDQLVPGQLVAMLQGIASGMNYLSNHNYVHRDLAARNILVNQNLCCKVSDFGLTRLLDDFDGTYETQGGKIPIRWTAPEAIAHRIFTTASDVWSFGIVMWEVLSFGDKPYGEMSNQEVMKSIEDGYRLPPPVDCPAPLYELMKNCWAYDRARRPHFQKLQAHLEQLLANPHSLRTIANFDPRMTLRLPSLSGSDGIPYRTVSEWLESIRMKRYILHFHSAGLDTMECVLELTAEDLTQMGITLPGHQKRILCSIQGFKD
Sequence of kinases (Homo sapiens, UniProt P11309) (P11309 whole entry): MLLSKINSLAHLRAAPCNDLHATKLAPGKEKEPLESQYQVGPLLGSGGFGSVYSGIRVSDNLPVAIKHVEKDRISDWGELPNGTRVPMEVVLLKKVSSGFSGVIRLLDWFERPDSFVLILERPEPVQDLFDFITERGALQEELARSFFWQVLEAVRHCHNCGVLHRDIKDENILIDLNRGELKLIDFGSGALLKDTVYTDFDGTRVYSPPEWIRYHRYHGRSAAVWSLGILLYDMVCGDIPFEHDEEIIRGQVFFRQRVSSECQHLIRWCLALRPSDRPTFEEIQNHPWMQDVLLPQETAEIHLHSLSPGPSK
Sequence of kinases (Homo sapiens, UniProt Q8NI60) (Q8NI60 163-647): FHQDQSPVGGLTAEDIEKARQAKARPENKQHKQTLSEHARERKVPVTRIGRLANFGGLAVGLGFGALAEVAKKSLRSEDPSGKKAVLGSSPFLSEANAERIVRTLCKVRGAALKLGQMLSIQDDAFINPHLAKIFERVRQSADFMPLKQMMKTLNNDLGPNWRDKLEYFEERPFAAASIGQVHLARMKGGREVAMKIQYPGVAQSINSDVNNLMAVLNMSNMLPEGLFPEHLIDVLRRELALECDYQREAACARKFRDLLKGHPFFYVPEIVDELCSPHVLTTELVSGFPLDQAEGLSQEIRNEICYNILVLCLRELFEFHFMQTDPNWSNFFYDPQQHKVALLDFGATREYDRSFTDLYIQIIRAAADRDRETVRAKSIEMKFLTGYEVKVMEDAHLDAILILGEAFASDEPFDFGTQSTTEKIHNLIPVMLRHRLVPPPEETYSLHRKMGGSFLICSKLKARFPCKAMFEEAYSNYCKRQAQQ
Sequence of kinases (Homo sapiens, UniProt Q9HBY8) (Q9HBY8 whole entry): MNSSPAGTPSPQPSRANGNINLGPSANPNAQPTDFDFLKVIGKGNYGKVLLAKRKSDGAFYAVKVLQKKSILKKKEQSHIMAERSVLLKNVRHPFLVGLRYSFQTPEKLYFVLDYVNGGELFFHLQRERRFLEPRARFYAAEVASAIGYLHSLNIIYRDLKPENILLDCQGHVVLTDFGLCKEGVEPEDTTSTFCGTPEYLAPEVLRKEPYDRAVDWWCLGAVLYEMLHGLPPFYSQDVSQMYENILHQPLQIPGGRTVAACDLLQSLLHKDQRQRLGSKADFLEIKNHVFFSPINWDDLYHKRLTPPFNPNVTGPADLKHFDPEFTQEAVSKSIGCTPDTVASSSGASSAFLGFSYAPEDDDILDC

Row | SMILES | Mean Inhib (%) (kinases [1]) | Mean Inhib (%) (kinases [2]) | Mean Inhib (%) (kinases [3]) | Mean Inhib (%) (kinases [4]) | Mean Inhib (%) (kinases [5]) | Mean Inhib (%) (kinases [6]) | Mean Inhib (%) (kinases [7]) | Mean Inhib (%) (kinases [8]) | Mean Inhib (%) (kinases [9]) | Mean Inhib (%) (kinases [10]) | Mean Inhib (%) (kinases [11]) | Mean Inhib (%) (kinases [12]) | Mean Inhib (%) (kinases [13]; [29]) | Mean Inhib (%) (kinases [13]; [30]) | Mean Inhib (%) (kinases [13]; [31]) | Mean Inhib (%) (kinases [13]; [32]) | Mean Inhib (%) (kinases [13]; [33]) | Mean Inhib (%) (kinases [13]; [34]) | Mean Inhib (%) (kinases [14]) | Mean Inhib (%) (kinases [15]) | also measured
1 | Cc1ccc(NC(=O)c2ccnc(N3CCOCC3)c2)cc1Nc1ccnc(N2CC(C)OC(C)C2)n1 (stereo not drawn) [compound 3] | 6.5% | 13.7% | −1.6% | 0.4% | 19.8% | 4.3% | 1.2% | 3.1% | 4.1% | 14.1% | 5.8% | 5.8% | −0.8% | −1.1% | −3.5% | 11.4% | 7.8% | 3.8% | 8.1% | 5.1% | Mean Inhib (%) (kinases [16]): 7.8%; Mean Inhib (%) (kinases [17]): 6.5%; Mean Inhib (%) (kinases [18]): 6.5%; Mean Inhib (%) (kinases [19]): −3.5%; Mean Inhib (%) (kinases [20]): 6.9%; Mean Inhib (%) (kinases [21]): 5.8%; Mean Inhib (%) (kinases [22]): −2.0%; Mean Inhib (%) (kinases [23]): 23.3%; Mean Inhib (%) (kinases [24]): 7.4%; Mean Inhib (%) (kinases [25]): 0.7%; Mean Inhib (%) (kinases [26]): 6.3%; Mean Inhib (%) (kinases [27]): 5.1%; Mean Inhib (%) (kinases [28]): 6.7%
2 | Cc1cc(Oc2ccnc(Nc3ccc(S(N)(=O)=O)cc3)c2)c(-c2ccccn2)nc1C [compound 65] | 11.3% | 3.8% | −3.0% | −1.2% | 17.2% | −4.8% | −1.3% | 78.3% | 58.4% | 9.4% | 2.8% | 4.2% | −1.2% | 1.4% | 2.9% | −6.7% | −5.2% | −4.3% | 0.0% | 1.1% | Mean Inhib (%) (kinases [16]): 3.8%; Mean Inhib (%) (kinases [17]): 4.9%; Mean Inhib (%) (kinases [18]): 4.3%; Mean Inhib (%) (kinases [19]): −2.3%; Mean Inhib (%) (kinases [20]): 1.1%; Mean Inhib (%) (kinases [21]): 2.4%; Mean Inhib (%) (kinases [22]): −2.0%; Mean Inhib (%) (kinases [23]): −2.0%; Mean Inhib (%) (kinases [24]): 9.1%; Mean Inhib (%) (kinases [25]): 2.2%; Mean Inhib (%) (kinases [26]): 14.8%; Mean Inhib (%) (kinases [27]): 14.6%; Mean Inhib (%) (kinases [28]): 55.3%

Source: patent publication US20220187282A1, “CARDIOMYOCYTE PROLIFERATION” (The Council of the Queensland Institute of Medical Research, priority 2019, published 2022)
